Data set [1] has as its system RAW264.7. As to the kind of experiment: Cytotoxicity against mouse RAW264.7 cells assessed as reduction in cell viability after 24 hrs by alamarBlue assay. In kind it is cell-based. The note with it: RAW264.7, 24 h. For orientation: Resazurin is reduced to fluorescent resorufin, in cell work by metabolically active cells.
The subject of data set [2] is HEp-2. Kind of data set: Antiproliferative activity against human Hep2 cells assessed as reduction in cell viability after 48 hrs by alamarBlue assay. In kind it is functional, cell-based.
The test system of data set [3] is MCF7. Kind of data set: Antiproliferative activity against human MCF7 cells assessed as reduction in cell viability after 48 hrs by alamarBlue assay. In kind it is functional, cell-based.
Data set [4] concerns WiDr. Kind of data set: Antiproliferative activity against human WiDr cells assessed as reduction in cell viability after 48 hrs by alamarBlue assay. In kind it is functional, cell-based.
In data set [5] the test system is HepG2. As to the kind of experiment: Antiproliferative activity against human HepG2 cells assessed as reduction in cell viability after 48 hrs by alamarBlue assay. In kind it is functional, cell-based.
The nature of data set [6]: Cytotoxicity against mouse RAW264.7 cells assessed as cell viability at 15 ug/ml after 24 hrs by alamarBlue assay relative to control. In kind it is cell-based. The settings on record: read-out: Activity.
In data set [7] the test system is RAW264.7. As to the kind of experiment: Antiinflammatory activity in mouse RAW264.7 cells assessed as inhibition of LPS-induced NO production incubated for 12 hrs by Griess reagent based assay. In kind it is functional. A general note: The Griess reaction detects nitrite, a stable product of nitric oxide.
Data set [8] concerns Human immunodeficiency virus 1. Kind of data set: Antiviral activity against HIV 1 NL4-3 infected in human MT4 cells assessed as reduction in viral replication and measured on day 3 post infection by Nano-glo luciferase reporter gene assay. The format is functional, organism-based.

The structures appear in SMILES notation. Activity calls are given as the source filed them. The rule behind the calls is not given here.

By IC50 is commonly meant the midpoint of a concentration-inhibition curve. For `CO[C@@H]1O[C@]23C=C[C@@H]4[C@@]1(CC[C@]1(C)[C@@H]([C@H](C)C/C=C/C(C)(C)O)CC[C@@]41C)[C@@H]2CC[C@H](OC(=O)CC(=O)O)C3(C)C`, in data set [1], the IC50 came out at 29.1 µM. For the same compound, the result in data set [2], in data set [3], in data set [4] and in data set [5] was inactive. The viability at 24 h, 15 ug/ml in data set [6] stood at 113%. The “inhibition (INH)” value in data set [7] was found to be 42.6%.

In the case of `O=c1c(O)c(-c2ccc(O)c(O)c2)oc2cc(O)cc(O)c12` [QUERCETIN], in data set [1], the IC50 worked out at 4.2 µM. For the same compound, the viability at 24 h, 15 ug/ml in data set [6] was determined as 142%. The “inhibition (INH)” value in data set [7] was 88.9%.

Take `C/C=C/C(=O)O[C@H]1CC[C@@H]2C(=C[C@H](O)[C@@H]3[C@@]2(C=O)CC[C@]2(C)[C@@H]([C@H](C)C/C=C/C(C)(C)O)CC[C@@]32C)C1(C)C`: the IC50 in data set [1] came out at 19.1 µM. Moreover, the outcome in data set [2], in data set [3], in data set [4] and in data set [5] was inactive. For the same compound, in data set [6], the viability at 24 h, 15 ug/ml was 94.7%. Besides, the “inhibition (INH)” value in data set [7] stood at 73.3%.

Regarding `C[C@H](C/C=C/C(C)(C)O)[C@H]1CC[C@@]2(C)[C@@H]3[C@@H](O)C=C4[C@@H](CC[C@H](OC(=O)CC(=O)O)C4(C)C)[C@]3(C=O)CC[C@]12C`, the IC50 in data set [1] is 16 µM. The outcome in data set [2], in data set [3], in data set [4] and in data set [5] was inactive. For the same compound, the viability at 24 h, 15 ug/ml in data set [6] was 53.8%. For the same compound, in data set [7], the “inhibition (INH)” value came to 77%.

As for `COC(C)(C)/C=C/C[C@@H](C)[C@H]1CC[C@@]2(C)[C@@H]3[C@@H](O)C=C4[C@@H](CC[C@H](OC(=O)CC(=O)O)C4(C)C)[C@]3(C=O)CC[C@]12C`, the outcome in data set [8] was inactive.

`CO[C@H]1C=C2[C@@H](CC[C@H](OC(=O)CC(=O)O)C2(C)C)[C@]2(C=O)CC[C@]3(C)[C@@H]([C@H](C)C/C=C/C(C)(C)O)CC[C@@]3(C)[C@H]12`: the IC50 in data set [1] stood at 24.4 µM. The outcome in data set [2], in data set [3], in data set [4] and in data set [5] was inactive. For the same compound, the viability at 24 h, 15 ug/ml in data set [6] was 125%. In data set [7], the “inhibition (INH)” value came out at 51.2%.

As for `CO[C@@H](C=C(C)C)C[C@@H](C)[C@H]1CC[C@@]2(C)[C@@H]3[C@@H](O)C=C4[C@@H](CC[C@H](OC(=O)CC(=O)O)C4(C)C)[C@]3(C=O)CC[C@]12C`, in data set [1], the IC50 was found to be 16.1 µM. Besides, the result in data set [2], in data set [3], in data set [4], in data set [5] and in data set [8] was inactive. In addition, the viability at 24 h, 15 ug/ml in data set [6] was determined as 61.9%. Moreover, in data set [7], the “inhibition (INH)” value came to 68.8%.

As to `CO[C@H]1O[C@]23C=C[C@@H]4[C@@]1(CC[C@]1(C)[C@@H]([C@H](C)C/C=C/C(C)(C)O)CC[C@@]41C)[C@@H]2CC[C@H](OC(=O)CC(=O)O)C3(C)C`, in data set [1], the IC50 was found to be 11.3 µM. Further, the outcome in data set [2], in data set [3], in data set [4] and in data set [5] was inactive. Moreover, in data set [6], the viability at 24 h, 15 ug/ml turned out to be 59.6%. Further, in data set [7], the “inhibition (INH)” value came out at 66.1%.

In the case of `CCOC(C)(C)/C=C/C[C@@H](C)[C@H]1CC[C@@]2(C)[C@@H]3[C@@H](O)C=C4[C@@H](CC[C@H](OC(=O)CC(=O)O)C4(C)C)[C@]3(C=O)CC[C@]12C`, the IC50 in data set [1] was found to be 24 µM. Moreover, the result in data set [2], in data set [3], in data set [4] and in data set [5] was inactive. Besides, the viability at 24 h, 15 ug/ml in data set [6] turned out to be 89.7%. In addition, the “inhibition (INH)” value in data set [7] came out at 50.4%.

For `COC(=O)CC(=O)O[C@H]1CC[C@@H]2C(=C[C@H](O)[C@@H]3[C@@]2(C=O)CC[C@]2(C)[C@@H]([C@H](C)C/C=C/C(C)(C)OC)CC[C@@]32C)C1(C)C`, in data set [1], the IC50 amounted to 15.6 µM. Moreover, the result in data set [2], in data set [3], in data set [4], in data set [5] and in data set [8] was inactive. The viability at 24 h, 15 ug/ml in data set [6] turned out to be 69%. The “inhibition (INH)” value in data set [7] was found to be 64.3%.

For the compound `COC(=O)CC(=O)O[C@H]1CC[C@@H]2C(=C[C@H](O)[C@@H]3[C@@]2(C=O)CC[C@]2(C)[C@@H]([C@H](C)C/C=C/C(C)(C)O)CC[C@@]32C)C1(C)C`, the IC50 in data set [1] was found to be 20.3 µM. Further, the outcome in data set [2], in data set [3], in data set [4], in data set [5] and in data set [8] was inactive. The viability at 24 h, 15 ug/ml in data set [6] was determined as 67.6%. Also, in data set [7], the “inhibition (INH)” value worked out at 65.1%.

Consider `CO[C@H]1C=C2[C@@H](CC[C@H](OC(=O)CC(=O)O)C2(C)C)[C@]2(C=O)CC[C@]3(C)[C@@H]([C@H](C)C/C=C/C(C)(C)OC)CC[C@@]3(C)[C@H]12`, for which the IC50 in data set [1] is 22.1 µM. Also, the result in data set [2], in data set [3], in data set [4], in data set [5] and in data set [8] was inactive. The viability at 24 h, 15 ug/ml in data set [6] was found to be 72.4%. In data set [7], the “inhibition (INH)” value is reported as 56.5%.

On to `CO[C@H]1C=C2[C@@H](CC[C@H](O)C2(C)C)[C@]2(C=O)CC[C@]3(C)[C@@H]([C@H](C)C/C=C/C(C)(C)OC)CC[C@@]3(C)[C@H]12`, for which, in data set [1], the half-maximal inhibitory concentration (IC50) stood at 35.6 µM. For the same compound, the result in data set [2], in data set [3], in data set [4] and in data set [5] was inactive. The viability at 24 h, 15 ug/ml in data set [6] turned out to be 90.5%. The “inhibition (INH)” value in data set [7] is 35%.

The record behind these values is ChEMBL document CHEMBL4627387, “Cucurbitane-Type Triterpenoids from the Vines of Momordica charantia and Their Anti-inflammatory Activities” (J Nat Prod, 2020).
